Reference: patent publication US5470858A, “Derivatives of (hetero)aromatic ethers and thioethers having antihyperlipidemic activity, process for their preparation and pharmaceutical compositions containing them” (Pierrel SpA, priority 1991, dated 1995)
Where two headings read alike, the source gives them in different places.

Assays:
Type in all cases: in vivo
[1] = system: hyperlipaemic SD male rats; experiment: Hypolipemizing activity, 5 days experimental model, modified Nath diet; settings: rat, oral; for change in vivo at 100 mg/kg/day / change in vivo at 300 mg/kg/day: 120 h; for Hepatic index (percent variation vs hyperlipaemic controls): index = (Liver weight/body weight) × 100
Method: (§1) The hypolipemizing activity of the compounds of the present invention has been evaluated in the rat using SD male animals (Charles River) of an initial weight of 150 g, housed in controlled environment at a temperature of 21°±1° C., relative humidity 60% and a 12 hours light/dark cycle.
Experimental models have been used in which the animals are rendered hiperlipaemic by "ad libitum" food administration with a modified Nath diet (Atherosclerosis 30, 1978, pag. 45-46) having the following composition: […]
hydrogenated coconut oil
In the first model the animals have been fed with this diet for 5 consecutive days, during which they received the pharmacological treatment once a day by oral route and were sacrificed 2 hours after the last administration.
At the time of the sacrifice the blood was removed, for the lipid determination, as well as the liver the weight of which was the index of a possible hepatomegaly.
By this experimental model the concentration of the serum lipids attained very high values which, in the control group, was four times the normal values for the total cholesterol and the triglycerides.
(§2) The determination of the triglycerides, of the total cholesterol and of the cholesterol associated to the HDL has been effected by means of a commercial enzymatic kit. The concentration of the cholesterol associated to VLDL+LDL has been determined by difference between total cholesterol and HDL.
The results obtained in the experimental model of the 5 days duration for some compounds representative of the invention are reported in the following table 1. The data are expressed as percent variation with respect to the hyperlipaemic controls to which carboxymethylcellulose as 0.5% in water at the dose of 10 ml/kg/day by oral route was administered. The same vehicle was used for the suspension of the tested compounds at the doses of 100 and 300 mg/kg/day by oral route.

[2] = system: hyperlipaemic SD male rats; experiment: Hypolipemizing activity, 15 days experimental model, modified diet; settings: rat, oral; for Cholesterol VLDL + LDL (percent variation vs hyperlipaemic controls): by difference between total and HDL; for Hepatic index (percent variation vs hyperlipaemic controls): index = (Liver weight/body weight) × 100
Method: as §1
Experimental models have been used in which the animals are rendered hiperlipaemic by "ad libitum" food administration with a modified Nath diet (Atherosclerosis 30, 1978, pag. 45-46) having the following composition:
In the second model a diet was used which was modified with respect to the former one by the following parameters: […]
The animals were fasted with this diet for 15 days consecutively, during which they received the pharmacological treatment once a day by oral route and were sacrificed 24 hours after the last administration. At the sacrifice time the blood was removed for the lipid determination and the liver was removed as well to be weighed and used for the evaluation of the catalase enzyme as the index of the peroxysomes proliferation and thus of hepatotoxicity.
This experimental model has been used only for the molecules which in the first model were found more promising, and has permitted to get values of the serum lipids from 2 to 3 times higher than the normal values both for the total cholesterol and for the triglycerides.
This experimental model was used to:
a) evaluate the effectiveness on a less marked hyperlipoproteinaemy, and
b) assess mainly at the hepatic level the tolerability of the compounds during a more extended treatment.
as §2
On the basis of the indications provided by this screening the most interesting compounds have been evaluated by the 15 days experimental model which permits both the evaluation of the effectiveness in the case of a hyperlipaemia less marked and more constant, and the tolerability control of the compounds during a longer term treatment.
In this case too the results (reported in the following table 2) are expressed as the percent variation with respect to the hyperlipaemic controls to which carboxymethylcellulose as 0.5% in water was administered by oral route at the dose of 10 ml/kg/day. The same vehicle was used for the suspension of the compounds being tested, administered at the doses; of 50 and 100 mg/kg/day by oral route.

catalase enzyme = experiment: Hepatic tolerability, 15 days at high dose: catalase enzyme activity in liver (index of peroxysomes proliferation); settings: rat liver, oral, 15 days, 300 mg/kg/day; absolute values; solvent 539,8
Method: (§3) The hypolipemizing activity of the compounds of the present invention has been evaluated in the rat using SD male animals (Charles River) of an initial weight of 150 g, housed in controlled environment at a temperature of 21°±1° C., relative humidity 60% and a 12 hours light/dark cycle. The animals were fasted with this diet for 15 days consecutively, during which they received the pharmacological treatment once a day by oral route and were sacrificed 24 hours after the last administration. At the sacrifice time the blood was removed for the lipid determination and the liver was removed as well to be weighed and used for the evaluation of the catalase enzyme as the index of the peroxysomes proliferation and thus of hepatotoxicity. In order to evaluate the hepatic tolerability of the compounds of interest they have been administered for 15 days at a high dose (300 mg/kg/day) according to the same conditions of the previous experiment.24 hours after the last treatment the animals have been sacrificed, and the liver has been removed and stored at -20° C. up to the time of dosing the activity of the catalase enzyme (Methods of enzymatic analysis, vol.2, pag. 673, 1974 edit. H. U. Bergmeyer, Verlag Chemie International).

liver = experiment: Hepatic tolerability, 15 days at high dose: hepatic index; settings: rat, oral, 15 days, 300 mg/kg/day; absolute values; solvent 5,4
Method: as §3

[3] = 100 mg/kg/day, by difference between total and HDL, read-out: Cholesterol VLDL + LDL (percent variation vs hyperlipaemic controls)
[4] = 100 mg/kg/day, read-out: Cholesterol HDL (percent variation vs hyperlipaemic controls)
[5] = 100 mg/kg/day, read-out: Total Cholesterol (percent variation vs hyperlipaemic controls)
[6] = 100 mg/kg/day, read-out: Triglycerides (percent variation vs hyperlipaemic controls)
[7] = 300 mg/kg/day, by difference between total and HDL, read-out: Cholesterol VLDL + LDL (percent variation vs hyperlipaemic controls)
[8] = 300 mg/kg/day, read-out: Cholesterol HDL (percent variation vs hyperlipaemic controls)
[9] = 300 mg/kg/day, read-out: Total Cholesterol (percent variation vs hyperlipaemic controls)
[10] = 300 mg/kg/day, read-out: Triglycerides (percent variation vs hyperlipaemic controls)

| SMILES | change in vivo at 100 mg/kg/day [1, 3] [%] | change in vivo at 100 mg/kg/day [1, 4] [%] | change in vivo at 100 mg/kg/day [1, 5] [%] | change in vivo at 100 mg/kg/day [1, 6] [%] | change in vivo at 300 mg/kg/day [1, 7] [%] | change in vivo at 300 mg/kg/day [1, 8] [%] | change in vivo at 300 mg/kg/day [1, 9] [%] | change in vivo at 300 mg/kg/day [1, 10] [%] | Hepatic index (percent variation vs hyperlipaemic controls) ([1]; 100 mg/kg/day) | Hepatic index (percent variation vs hyperlipaemic controls) ([1]; 300 mg/kg/day) | Cholesterol HDL (percent variation vs hyperlipaemic controls) ([2]; 50 mg/kg/day) | Total Cholesterol (percent variation vs hyperlipaemic controls) ([2]; 50 mg/kg/day) | Triglycerides (percent variation vs hyperlipaemic controls) ([2]; 50 mg/kg/day) | Cholesterol VLDL + LDL (percent variation vs hyperlipaemic controls) ([2]; 50 mg/kg/day) | Hepatic index (percent variation vs hyperlipaemic controls) ([2]; 50 mg/kg/day) | Cholesterol HDL (percent variation vs hyperlipaemic controls) ([2]; 100 mg/kg/day) | Total Cholesterol (percent variation vs hyperlipaemic controls) ([2]; 100 mg/kg/day) | Triglycerides (percent variation vs hyperlipaemic controls) ([2]; 100 mg/kg/day) | Cholesterol VLDL + LDL (percent variation vs hyperlipaemic controls) ([2]; 100 mg/kg/day) | Hepatic index (percent variation vs hyperlipaemic controls) ([2]; 100 mg/kg/day) | also measured |
| --- | --- | --- | --- | --- | --- | --- | --- | --- | --- | --- | --- | --- | --- | --- | --- | --- | --- | --- | --- | --- | --- |
| CC(C)COC(=O)c1ccc(OCC(O)CSc2nc3ccccc3o2)cc1 (stereo not drawn) [Example 11] | -22.8 | 9.5 | -21.4 | -21.6 | -39.7 | 14.9 | -37.1 | -30.3 | -2,3% | -1,7% | -9,9% | -36,6% | -48,5% | -39,7% | +0,2% | +16,1% | -34,4% | -46,8% | -40,2% | -3,1% | Catalase enzyme activity (catalase enzyme): 444,7 umoli/min/mg proteins; Hepatic index (Liver weight/body weight) × 100 (liver): 5,8 |
| CC(C)COC(=O)c1ccc(OCC(CSc2nc3c(N)ncnc3n2[C@@H]2O[C@H](CO)[C@@H](O)[C@H]2O)=NNC(N)=O)cc1 [Example 33] | -37.4 | 22.2 | -34.8 | -27.8 | -46.9 | 16.6 | -44.1 | -43 | -1,6% | -2,5% | +15,6% | -29,7% | -20,5% | -34,7% | +2,2% | +19,4% | -33,8% | -30,6% | -39,7% | +3,9% | Catalase enzyme activity (catalase enzyme): 378,5 umoli/min/mg proteins; Hepatic index (Liver weight/body weight) × 100 (liver): 5,3 |
| CC(C)COC(=O)c1ccc(OCC(=O)CSc2nc3ccccc3s2)cc1 [Example 2, 2-[3-[(p-isobutyloxycarbonyl)phenoxy]-2-oxo-propylthio]-benzothiazole] | -14.7 | 10.4 | -13.2 | -22.1 | -21.8 | 13.9 | -19.5 | -32.5 | -6,5% | -1,6% | -24,5% | -13,1% | -0,2% | -12,0% | +3,5% | -0,4% | -12,9% | -18,7% | -14,0% | -4,5% | Catalase enzyme activity (catalase enzyme): 603,0 umoli/min/mg proteins; Hepatic index (Liver weight/body weight) × 100 (liver): 6,0 |
